# What was measured:
# CelEdx16 = target: T1, CelEdx16 (Clostridiaceae bacterium AN-C16-KBRB, UniProt E0A3Q5); assay: p-nitrophenol release, […] nm; type: biochemical; conditions: 2 mM substrate, PBS pH 7.4, 40 °C, 12 h
# T1 sequence (E0A3Q5 1-367): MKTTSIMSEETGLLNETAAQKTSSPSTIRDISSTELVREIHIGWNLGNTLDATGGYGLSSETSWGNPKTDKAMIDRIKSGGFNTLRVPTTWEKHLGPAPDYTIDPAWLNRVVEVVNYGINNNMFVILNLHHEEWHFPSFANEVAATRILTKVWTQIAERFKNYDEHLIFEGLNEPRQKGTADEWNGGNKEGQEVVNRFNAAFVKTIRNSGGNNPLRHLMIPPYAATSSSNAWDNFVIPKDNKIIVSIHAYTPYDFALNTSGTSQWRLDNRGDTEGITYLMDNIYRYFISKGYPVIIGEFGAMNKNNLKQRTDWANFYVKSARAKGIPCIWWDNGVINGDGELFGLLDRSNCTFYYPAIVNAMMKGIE
# HjCel7A = target: T2, HjCel7A (Trichoderma reesei, UniProt P62694); assay: p-nitrophenol release, […] nm; type: biochemical; conditions: 2 mM substrate, PBS pH 7.4, 40 °C, 12 h
# T2 sequence (P62694 18-513): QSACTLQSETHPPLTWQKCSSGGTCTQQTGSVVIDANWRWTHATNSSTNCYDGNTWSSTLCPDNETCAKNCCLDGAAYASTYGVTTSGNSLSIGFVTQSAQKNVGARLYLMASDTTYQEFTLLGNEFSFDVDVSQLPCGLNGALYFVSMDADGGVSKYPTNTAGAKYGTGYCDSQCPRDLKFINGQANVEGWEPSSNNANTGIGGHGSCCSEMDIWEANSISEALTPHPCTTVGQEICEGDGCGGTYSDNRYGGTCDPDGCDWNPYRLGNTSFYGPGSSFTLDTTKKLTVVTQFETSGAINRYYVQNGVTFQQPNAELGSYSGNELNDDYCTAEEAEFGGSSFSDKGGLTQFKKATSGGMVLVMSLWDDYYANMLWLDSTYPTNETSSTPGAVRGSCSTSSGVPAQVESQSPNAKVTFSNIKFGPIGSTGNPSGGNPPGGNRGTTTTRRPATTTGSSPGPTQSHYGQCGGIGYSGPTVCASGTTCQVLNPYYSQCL
compound,measurement,setting,value
O=[N+]([O-])c1ccc(O[C@@H]2O[C@H](CO)[C@@H](O[C@@H]3O[C@H](CO)[C@@H](O)[C@H](O)[C@H]3O)[C@H](O)[C@H]2O)cc1 [p-nitrophenyl β-D-cellobioside],"p-nitrophenol release, 405 nm; cell-free CB-biosensor",CelEdx16,pNP assay detected significant signals for CelEdx16 and HjCel7A (CBHI)
same,"p-nitrophenol release, 405 nm; cell-free CB-biosensor",HjCel7A,pNP assay detected significant signals for CelEdx16 and HjCel7A (CBHI)
